Laboratory results: patent US8455499B2, “Alkyne antagonists of lysophosphatidic acid receptors” (Amira Pharmaceuticals, Inc., priority 2008, dated 2013)

biological target: T1, human LPA1 (Homo sapiens, UniProt Q92633); assay: HLPA1 Ca Flux assay (LPA1 calcium flux assay); type: cell-based; settings: CHO cells stably expressing human LPA1; stimulated by 10 nM LPA; intracellular Ca2+
T1 construct: the full-length cDNA for human LPA1 was obtained by PCR of the reverse transcription reaction; expressed in transfected cells
T1 sequence (Q92633 whole entry): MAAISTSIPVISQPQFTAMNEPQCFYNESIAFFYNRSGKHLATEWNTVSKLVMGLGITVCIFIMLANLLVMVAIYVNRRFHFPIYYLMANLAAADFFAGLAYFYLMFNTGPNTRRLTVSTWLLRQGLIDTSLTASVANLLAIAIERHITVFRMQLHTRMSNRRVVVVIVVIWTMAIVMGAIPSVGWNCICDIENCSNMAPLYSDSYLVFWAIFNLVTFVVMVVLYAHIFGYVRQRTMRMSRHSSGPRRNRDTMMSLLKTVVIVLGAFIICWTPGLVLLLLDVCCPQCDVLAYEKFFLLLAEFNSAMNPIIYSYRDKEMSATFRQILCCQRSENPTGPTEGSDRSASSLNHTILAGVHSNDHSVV
Method: A 1.1 kb cDNA encoding the human LPA1 receptor was cloned from human lung. Human lung RNA (Clontech Laboratories, Inc. USA) was reverse transcribed using the RETROscript kit (Ambion, Inc.) and the full-length cDNA for human LPA1 was obtained by PCR of the reverse transcription reaction. The nucleotide sequence of the cloned human LPA1 was determined by sequencing and confirmed to be identical to the published human LPA1 sequence (An et al. Biochem. Biophys. Res. Commun. 231:619 (1997). The cDNA was cloned into the pCDNA5/FRT expression plasmid and transfected in CHO cells using lipofectamine 2000 (Invitrogen Corp., USA). Clones stably expressing human LPA1 were selected using hygromycin and identified as cells that show Ca-influx in response to LPA.
Human LPA1 or LPA3 expressing CHO cells are seeded at 20,000-45,000 cells per well in a 96-well poly-D-lysine coated plate one or two days before the assay. Prior to the assay, the cells are washed once with PBS and then cultured in serum-free media overnight. On the day of the assay, a calcium indicator dye (Calcium 4, Molecular Devices) in assay buffer (HBSS with Ca^2+ and Mg^2+ and containing 20 mM Hepes and 0.3% fatty-acid free human serum albumin) is added to each well and incubation continued for 1 hour at 37° C. 10 μl of test compounds in 2.5% DMSO are added to the cells and incubation continued at room temperature for 30 minutes. Cells are the stimulated by the addition of 10 nM LPA and intracellular Ca^2+ measured using the Flexstation 3 (Molecular Devices). IC50s are determined using Graphpad prism analysis of drug titration curves.

Structure (SMILES)	IC50
Cc1noc(-c2ccc(C#CCCCC(=O)O)cc2)c1NC(=O)OC(C)c1ccccc1Cl (centres unmarked) [Compound 1-2, 6-(4-{4-[1-(2-Chloro-phenyl)-ethoxycarbonylamino]-3-methyl-isoxazol-5-yl}-phenyl)-hex-5-ynoic acid]	< 300 nM
Cc1noc(-c2ccc(C#CCC(C)(C)C(=O)O)cc2)c1NC(=O)OC(C)c1ccccc1Cl (centres unmarked) [Compound 1-4, 5-(4-{4-[1-(2-Chloro-phenyl)-ethoxycarbonylamino]-3-methyl-isoxazol-5-yl}-phenyl)-2,2-dimethyl-pent-4-ynoic acid]	< 300 nM
Cc1noc(-c2ccc(C#CCCC(=O)O)cc2)c1NC(=O)OC(C)c1ccccc1Cl (centres unmarked) [Compound 1-1, 5-(4-{4-[1-(2-Chloro-phenyl)-ethoxycarbonylamino]-3-methyl-isoxazol-5-yl}-phenyl)-pent-4-ynoic acid]	< 300 nM
Cc1noc(-c2ccc(C#CCCCCC(=O)O)cc2)c1NC(=O)OC(C)c1ccccc1Cl (centres unmarked) [Compound 1-3, 7-(4-{4-[1-(2-Chloro-phenyl)-ethoxycarbonylamino]-3-methyl-isoxazol-5-yl}-phenyl)-hept-6-ynoic acid]	< 300 nM

Second part, the compound after the results:

IC50	Structure (SMILES)
< 300 nM	Cc1noc(-c2ccc(C#CCn3cnc(C(=O)O)c3)cc2)c1NC(=O)OC(C)c1ccccc1Cl (centres unmarked) [Compound 2-3, 1-[3-(4-{4-[1-(2-Chloro-phenyl)-ethoxycarbonylamino]-3-methyl-isoxazol-5-yl}-phenyl)-prop-2-ynyl]-1H-imidazole-4-carboxylic acid]
300 to 1000 nM	Cc1noc(-c2ccc(C#CCn3cc(C(=O)O)cn3)cc2)c1NC(=O)OC(C)c1ccccc1Cl (centres unmarked) [Compound 2-2, 1-[3-(4-{4-[1-(2-Chloro-phenyl)-ethoxycarbonylamino]-3-methyl-isoxazol-5-yl}-phenyl)-prop-2-ynyl]-1H-pyrazole-4-carboxylic acid]
< 300 nM	Cc1noc(-c2ccc(C#CCn3cncn3)cc2)c1NC(=O)OC(C)c1ccccc1Cl (centres unmarked) [Compound 3-1]
> 1000 nM	Cc1noc(-c2ccc(C#CCn3ncc(C(=O)O)c3C(F)(F)F)cc2)c1NC(=O)OC(C)c1ccccc1Cl (centres unmarked) [Compound 2-1, 1-[3-(4-{4-[1-(2-Chloro-phenyl)-ethoxycarbonylamino]-3-methyl-isoxazol-5-yl}-phenyl)-prop-2-ynyl]-5-trifluoromethyl-1H-pyrazole-4-carboxylic acid]
